According to patent US20100215759A1 (priority 2009, published 2010):

Legend:
[1] = system: mice; test: Hypothermia test in vivo (rectal temperature after i.p. administration); details: for Body Temperature: 40 mg/kg i.p.
Description: It is known that the compounds having a cannabomimetic activity show in vivo the following effects: hypoactivity, hypothermia, analgesia and catalepsy (B. R. Martin et al., Pharmacol. Biochem. Behav.; 1991, 40, 471-478; P. B. Smith et al.; J. Pharmacol. Exp. Ther.; 1994, 270, 219-227). In order to display thermoregulating activity, the compounds acting towards the cannabinoidergic receptors must be able to pass the haematoencephalic barrier since the central site of said temperature regulating receptors is positioned in the preoptical front core of the hypothalamus (S. M. Rawls et al.; J. Pharmacol. Exp. Ther.; 2002, 303, 395-402). After treatment with CB1 agonist compounds passing the haemato-encephalic barrier, the cannabimimetic activity is evidenced by a reduction of the body temperature. CB1 antagonist compounds that pass the haemato-encephalic barrier, have no influence on the body temperature and show an antagonist activity towards the reference CB1 agonists as WIN 55.212-2, thus hindering the hypothermia induced by the latter.
The tests have been carried out in the experimental animal (mice) according to the indications of M. Rinaldi-Carmona et al. in FEBS Letters; 1994, 350, 240-244. Rectal temperature in mice was determined by an electronic thermometer inserted at a 2 mm depth. The measurements were carried out on mice acclimatized for one hour. […]
The experiment was carried out with the compound of example 3.1. Said compound was dispersed in a carrier formed of a physiological solution added with Tween 80 (3 drops). The so prepared samples were used for treating the animals at a dose of the compound of 40 mg/kg of body weight. The blank was the carrier.
Each test was repeated on ten animals: the results obtained are therefore the average of the determinations made on ten animals.

[2] = system: old DBA/2J mice; test: Reduction of intraocular pressure (IOP) after application to the eye, TONOLab tonometer; format: in vivo; details: for Intraocular Pressure Decrease: versus basal IOP
Description: The main risk factor in the glaucoma is represented by the high intraocular pressure (IOP). See for instance: Libby R. T. et al., Vis Neurosci. 2005 Sep.-Oct., 22(5):637-48 and Tomida I. et al., Br. J. Opthalmol. 2004 May, 88(5):708-13.
By using the animal model of old DBA/2J mice (see above) it has been evaluated the efficacy of the compound obtained in example 3.1 in reducing the IOP. As said, this compound has a good affinity towards the CB1 receptors in vitro (example 4) and a CB1 agonist action in vivo (example 5). The intraocular pressure has been determined by a TONOLab Tonometer (Tiolat Oy), as reported by M. E. Pease et al. in J. Glaucoma, 2006 December, 15(6):512-519. The compound was dispersed in the commercial emulsion Tocrisolve™, (Tocris), at a concentration of […] and applied to the eye of old DBA/2J mice (8-10 month age; basal IOP comprised between 19.0 and 22.5 mmHg). The applied emulsion volumes were such that the compound doses resulted, respectively, of 100 μg or 50 μg. WIN 55212-2 was dispersed in Tocrisolve™at the concentration of 5 mg/ml and was the reference cannabinoidergic compound. The determination of the ocular pressure was carried out every 30 minutes up to two hours starting from the administration. The obtained results (average of 6 measurements at each time for experimental groups of 8-10 animals for group/dose) are reported in Table 3. IOP decrease was expressed in percent with respect to the basal value.

[3] = 50 μg to the eye in Tocrisolve, 30 minutes
[4] = 50 μg to the eye in Tocrisolve, 60 minutes
[5] = 50 μg to the eye in Tocrisolve, 90 minutes
[6] = 50 μg to the eye in Tocrisolve, 120 minutes
[7] = 100 μg to the eye in Tocrisolve, 30 minutes
[8] = 100 μg to the eye in Tocrisolve, 60 minutes
[9] = 100 μg to the eye in Tocrisolve, 90 minutes
[10] = 100 μg to the eye in Tocrisolve, 120 minutes

| Structure (SMILES) | Reduction of body temperature versus the carrier ([1]; 40 mg/Kg) | Body Temperature ([1]; 0 minutes from administration) [°C] | Body Temperature ([1]; 15 minutes from administration) [°C] | Body Temperature ([1]; 30 minutes from administration) [°C] | Body Temperature ([1]; 60 minutes from administration) [°C] | Body Temperature ([1]; 90 minutes from administration) [°C] | Body Temperature ([1]; 120 minutes from administration) [°C] | Intraocular Pressure Decrease [2, 3] [%] | Intraocular Pressure Decrease [2, 4] [%] | Intraocular Pressure Decrease [2, 5] [%] | Intraocular Pressure Decrease [2, 6] [%] | Intraocular Pressure Decrease [2, 7] [%] | Intraocular Pressure Decrease [2, 8] [%] | Intraocular Pressure Decrease [2, 9] [%] | Intraocular Pressure Decrease [2, 10] [%] | Reduction of intraocular pressure ([2]; dose 50 μg) | Reduction of intraocular pressure ([2]; dose 100 μg) |
| --- | --- | --- | --- | --- | --- | --- | --- | --- | --- | --- | --- | --- | --- | --- | --- | --- | --- |
| Cc1ccc(Cn2nc(C(=O)NCC3CCC4CC3C4(C)C)c3c2-c2sc(C)cc2C3)cc1 (stereo not shown) [Example 3.1, N-myrtanyl-6-methyl-1-(4′-methylbenzyl)-1,4-dihydrothieno[3′,2′:4,5]cyclopenta[1,2-c]pyrazol-3-carboxamide] | significantly reduce the body temperature | 37.9 | 36.1 | 34.8 | 35.0 | 36.7 | 37.2 | 15.9 | 15.0 | 12.6 | 11.7 | 23.9 | 22.8 | 19.6 | 21.7 | more effective in reducing IOP than the reference compound | as effective to reduce eye pressure as the reference compound WIN 55212-2 |
| CCOC(=O)c1nn(-c2ccc(S(N)(=O)=O)cc2)c2c1CCc1sccc1-2 [Compound (XA), 1-(4′-sulphonamidophenyl)-4,5-dihydro-1H-thieno[2,3-g]indazol-3-ethyl carboxylate] |  |  |  |  |  |  |  | −0.3 | −0.2 | 0.0 | −0.1 | 0.0 | −0.2 | −0.1 | 0.1 | not able to significantly reduce the intraocular pressure | not able to significantly reduce the intraocular pressure |
| NC(=O)c1nn(-c2ccc(S(N)(=O)=O)cc2)c2c1CCc1sccc1-2 [Compound (XB), 1-(4′-sulphonamidophenyl)-4,5-dihydro-1H-thieno[2,3-g]indazol-3-carboxamide] |  |  |  |  |  |  |  | −0.2 | −0.1 | 0.0 | −0.1 | −0.1 | 0.4 | −0.3 | 0.0 | not able to significantly reduce the intraocular pressure | not able to significantly reduce the intraocular pressure |
